How the values were obtained:
[1] = tested on: Human leukemia cells (HL-60); experiment: Apoptosis of cancer cells (HL-60); type: cell-based
Procedure: Human leukemia cells (HL-60) were grown in RPMI Medium 1640 supplemented with 10% (v/v) heat-inactivated FBS (56° C. for 30 min) at 37° C. in a humidified 95% air/5% CO2 atmosphere. Cells were seeded at a level of 2×10^5 cells/ml. Cells were allowed to attain a maximum density of 1.2×10^6 cells/ml before being passed by dilution into fresh medium to a concentration of 2×10^5 cells/ml.
Apoptosis determined by the following process: Cell pellets containing 5×10^6 cells were fixed with 2.5% glutaraldehyde in cacodylate buffer (pH 7.4), dehydrated through graded alcohol, and infiltrated with LX-112 epoxy resin. After overnight polymerization at 60° C. 1-μm sections were cut with glass knives using a LKB Nova microtome. The sections were stained with 1% toluidine blue and coverslipped.
DNA electrophoresis: Untreated and treated HL-60 cells collected by centrifugation, washed in phosphate buffered saline and re-suspended at a concentration of 5×10^6 cells and 0.1% RNase A. The mixture was incubated at 37° C. for 30 min and then incubated for an additional 30 min at 37° C. with 1 ml protease K. Buffer was added and 25 μl of the tube content transferred to the Horizontal 1.5% agarose gel electrophoresis was performed at 2 V/cm. DNA in gels visualized under UV light after staining with ethidium Bromide (5 μg/ml).
DNA fragmentation assays: DNA cleavage was performed, quantitation of fractional solubilized DNA by diphenylamine assay and the percentage of cells harboring fragmented DNA determined by in labeling techniques. For the diphenylamine assay, 5×10^6 cells were lysed in 0.5 mL lysis buffer (5 mmol/L Tris-HCl, 20 mmol/L DTA, and 0.5% Triton X-100, pH 8.0) at 4° C. Lysates were centrifuged (15,000 g) for separation of high molecular weight DNA (pellet) and DNA cleavage products (supernatant). DNA was precipitated with 0.5 N perchloric acid and quantitated using diphenylamine reagent. The cell cycle distribution was determined 4 hours after addition of drug and represents mean±SD of 5 independent experiments.
Human promyelocytic leukemia cells (HL-60) were grown in RPMI Medium 1640 supplemented with 10% (v/v) heat-inactivated FBS (56° C. for 30 min) at 37° C. in a humidified 95% air/5% CO2 atmosphere. Cells were seeded at a level of 2×10^5 cells/ml. Cells were allowed to attain a maximum density of 1.2×10^6 cells/ml before being passed by dilution into fresh medium to a concentration of 2×10^5 cells/ml. Apoptosis determined by the following process: Cell pellets containing 5×10^6 cells ere fixed with 2.5% glutaraldehyde in cacodylate buffer (pH 7.4), dehydrated through graded alcohol, and infiltrated with LX-112 epoxy resin. After overnight polymerization at 60° C. 1-μm sections were cut with glass knives using a LKB Nova microtome. The sections were stained with 1% toluidine blue and coverslipped. […]
DNA fragmentation assays: DNA cleavage was performed, quantitation of fractional solubilized DNA by diphenylamine assay and the percentage of cells harboring fragmented DNA determined by in labeling techniques. […] DNA was precipitated with 0.5N perchloric acid and quantitated using diphenylamine reagent. […]

[2] = tested on: S180, ECS, HCS, ARS, U-14 and L615 transplanted tumor; experiment: Growth of transplanted tumors; type: in vivo, mice; conditions: 20 mg/kg
Procedure: Male mice, weight 20-22 g, were used in the experiment. 1×10^7 tumor cells were injected to mouse and PK-HHT-NP injected intraperitoneally began second day. All mice were sacrificed on the 12th days, isolated the tumor and weighed and calculated the inhibition rate of tumor weight.
Male mice, weight 20-22 g, were used in the experiment. 1×10^7 tumor cells were injected to mouse and CUR and PK-CUR-NP injected intraperitoneally began second day. All mice were sacrificed on the 12th days, isolated the tumor and weighed and calculated the inhibition rate of tumor weight.
Male mice, weight 20-22 g, were used in the experiment. 1×10^7 tumor cells were injected to mouse and ELE injected intraperitoneally began second day. All mice were sacrificed on the 12th days, isolated the tumor and weighed and calculated the inhibition rate of tumor weight.
Male mice, weight 20-22 g, were used in the experiment. 1×10^7 tumor cells were injected to mouse and CPT injected intraperitoneally began second day. All mice were sacrificed on the 12th days, isolated the tumor and weighed and calculated the inhibition rate of tumor weight.

[3] = mice, I.P. (injection in abdominal cavity)

Compound | Apoptosis (%) ([1]; concentration not given) | LD50 (Acute toxicity LD50; mouse, in vivo, ip) | growth of transplanted tumor [2] | LD50 (Acute toxicity LD50; [3]) | Apoptosis (%) ([1]; Concentration 20 μm) | Apoptosis (%) ([1]; Example 59)
CC[C@@]1(O)C(=O)OCc2c1cc1n(c2=O)Cc2cc3ccccc3nc2-1 [CPT, Camptothecin] | 65.8 ± 9.8% | 76 mg/kg | could inhibit the growth | – | – | –
C=C1C[C@@]2(O)O[C@@]3(C[C@H]2C(C)C)[C@@H](C)CC[C@@H]13 [CUR, Curcumol] | 68.3 ± 7.8% | – | could inhibit the growth | 325 mg/kg | – | –
COC(=O)C[C@](O)(CCCC(C)(C)O)C(=O)O[C@@H]1C(OC)=C[C@]23CCCN2CCc2cc4c(cc2[C@H]13)OCO4 [HHT, Homoharringtonine] | – | 3.3 ± 0.29 mg/kg | – | – | 68.3 ± 7.6% | 68.3 ± 7.6%
Eelemene | 69.2 ± 9.1% | – | could inhibit the growth | 318 mg/kg | – | –

From patent US20040192641A1, “Special preparation of anticancer drugs made by novel nanotechnology” (priority 2003, published 2004)
